For one experiment, the system named is E. coli DC2. In words: Cytoplasmic membrane depolarization, diSC35 assay. The class given is cell-based, Escherichia coli. As to conditions: 0.25 μg/ml peptide. As to the method: The arrowhead indicates the time at which 0.25 μg/ml peptide was added. PV5: SEQ ID NO:11; PV7: SEQ ID NO:4; and PV8: SEQ ID NO:3.
The cytoplasmic membrane depolarization activity of the peptides was determined (Wu and Hancock (1999) J. Biol. Chem. 274:29-35) using the membrane potential sensitive dye 3,3-dipropylthiacarbocyanine diSC35 (28) and E. coli DC2. Bacterial cells in mid-log phase were centrifuged, washed in 5 mM HEPES, pH 7.8, and resuspended in the same buffer to an OD600 of 0.05. A stock solution of diSC35 was added to a final concentration of 0.4 μM and quenching was allowed to occur at room temperature for 20-30 min. Then KCl was added to the cell suspension to a final concentration of 100 mM to equilibrate the cytoplasmic and external K^+ concentrations. A 2-mL cell suspension was placed in a 1 cm cuvette and the desired concentration of tested peptide was added. Changes in fluorescence due to the disruption of the membrane potential in the cytoplasmic membrane were continuously recorded using a Perkin-Elmer model 650-10S spectrofluorimeter at an excitation wavelength of 622 nm and an emission wavelength of 670 nm. The concentration of peptide leading to a 50% of maximal increase in NPN uptake was recorded as the P50.

In experiment [1] the test system is Salmonella typhimurium 14028s. The class given is cell-based. As for the experimental part:
(§1) The biological activity of the peptides can be determined by standard methods known to those of skill in the art, such as a “minimal inhibitory concentration” (MIC) assay (see Wu and Hancock (1999) J. Biol Chem. 274:29-35 and Examples section). A MIC assay allows the determination of the lowest concentration of peptide that inhibits the multiplication and growth of mircoorganisms. Changes in the microorganism population are assessed by measuring the optical density (OD) of the population in broth or medium. Peptide MIC's can be determined for a variety of micoorganisms under a variety of conditions. Another assay for the biological activity of the peptides is a “fractional inhibitory concentration” (FIC) assay. This assay is especially useful for determining synergistic effects between the peptides of the invention, and between invention peptides and other compounds such as known antibiotics. A FIC assay employs the strategy of a MIC assay with additional variable(s), e.g., known antibiotics. One type of FIC assay is performed in a microwell plate containing microorganisms in broth. Peptides, in a range of dilutions, is added to each well following a patter of one dimension of the microwell plate, and antibiotics, in the other dimension. The FIC is calculated by looking at the impact of an antibiotic on the MIC of the peptide and the reciprocal relationship. […] Preferably, an FIC of less than 0.5 is obtained for synergism. As used herein, FIC can be determined as follows:
(§2) The bacterial strains used for antimicrobial activity assays included E. coli UB1005 (F^−, nalA37, metB1) and its outer membrane deficient mutant DC2 (16), E. coli KF130 (gyrA) (Hooper et al. (1987) Am. J. Med. 82:(Suppl. 4A),12-20), wild tppe strains of S. typhimurium 14028s (Fields et al. (1989) Science 243:1059-1062), S. aureus ATCC25923, S. aureus SAP0017 and R147. Also included was a clinical isolate of S. epidermidis were obtained from Dr. D. Speert, Department of Medicine, University of British Columbia, and P. aeruginosa PAO1 (Hancock and Carey (1979) J. Bacteriol. 140:902-910), H374 and H744 (Poole et al. (1993) J. Bacterial.175:7363-7372.) and E. faecalis ATCC 29212. Antifungal activity was tested using a clinical lab isolate of Candida albicans. All the strains were grown in Mueller Hinton (MH) broth (Difco Laboratories, Detroit, Mich.) at 37° C. unless otherwise indicated. The lipopolysaccharides (LPS) of E. coli UB1005 and P. aeruginosa H103 used for the dansyl-polymyxin B replacement assay were isolated as described by Moore et al. ((1986) Antimicrobial. Agents Chemother. 29:496-500). Polymyxin B, 1-N-phenylnapthylamine (NPN), carbonyl cyanide-m-chlorophenyl hydrazone (CCCP), Re LPS from S. Minnesota R595 (Re mutant) and LPS from E. coli 0111 :B4 were purchased from Sigma Chemicals Co. (St. Louis, Mo.). Dansyl polymyxin B was synthesized as described previously (Moore et al. (1986) Antimicrobial. Agents Chemother. 29:496-500). The lipids 1-pamitoyl-2-oleoyl-sn-glycero-3-phosphocholine (POPC), 1-palmitoyl-2-oleoyl-sn-glycero-3-phosphoglycerol (POPG), 1-palmitoyl-2-oleoyl-sn-glycero-3-phosphoethanolamine (POPE) and phosphatidylglycerol from egg yolk (egg-PG) were purchased from Avanti Polar Lipids Inc. (Alabaster, Ala.). The fluorescent dye 3,3-dipropylthiacarbocyanine (diSC35) was purchased from Molecular Probes (Eugene, Oreg.).
(§3) MIC Assay p The minimum inhibitory concentrations of (MIC) of several invention peptides were determined using methods described elsewhere (Wu and Hancock, (1999) J. Biol Chem. 274:29-35). Cells were grown overnight at 37EC in LB-S (Luria broth without any salt supplement) and diluted one in 10,000 in the same medium to give concentrations of about 10^4 to 10^5 CFU/ml. The broth dilutions were set up in a 96-well microtiter plate by putting 200 μl of LB-S containing the initial concentration of antibiotic or compound in column 1 and 100 Φl of the same medium in columns 2-12. […]

In experiment [2] the test system is Pseudomonas aeruginosa PAO1. The class given is cell-based. As for the experimental part: as §1, §2, §3
The test system of another experiment is Candida albicans. The class given is cell-based. The note with it: Candida albicans clinical lab isolate. As for the experimental part:
as §1, §2, §3

The test system of a further experiment is Escherichia coli UB1005. The class given is cell-based. As for the experimental part: as §1, §2, §3
In another experiment the test system is P. aeruginosa M2. In words: P. aeruginosa infection in neutropenic mouse model. The class given is in vivo. The note with it: neutropenic CD-1 mice. As for the experimental part:
Invention peptides were assayed for their ability to protect against P. aeruginosa infection in a neutropenic mouse mode. Female CD-1 mice, made neutropenic by three injections of cyclophosphamide (see Gough et al., (1996) Infect. Immun. 64:4922-4927) were injected intraperitoneally with a 100% lethal dose of P. aeruginosa M2 (approximately 200 organisms). Thirty minutes later, mice were injected intraperitoneally with invention peptides (200 μg/100 μl) Survival was assessed 24 to 72 hours later.

Where a SMILES comes first, the peptide text is derived from it.

The source of these data is patent US6337317B1, “Antimicrobial peptides and methods of use thereof” (priority 2000, dated 2002).

A word on the MIC: it is the lowest concentration found to suppress growth. For the compound `CC(C)[C@@H]1NC(=O)[C@H](CCCNC(=N)N)NC(=O)[C@H](Cc2ccccc2)NC(=O)[C@@H](NC(=O)[C@H](Cc2c[nH]c3ccccc23)NC(=O)[C@H](CCCNC(=N)N)NC(=O)[C@@H](N)CCCNC(=N)N)CSSC[C@@H](C(=O)N[C@@H](CCCNC(=N)N)C(N)=O)NC(=O)[C@H](CCCCN)NC(=O)[C@H](CCCNC(=N)N)NC(=O)[C@H](Cc2ccc(O)cc2)NC(=O)[C@@H]2CSSC[C@H](NC1=O)C(=O)N[C@@H](Cc1ccc(O)cc1)C(=O)N[C@@H](CCCNC(=N)N)C(=O)NCC(=O)N[C@@H](Cc1ccccc1)C(=O)N2` [Polyphemusin I] (HELM PEPTIDE1{R.R.W.C.F.R.V.C.Y.R.G.F.C.Y.R.K.C.R.[am]}$PEPTIDE1,PEPTIDE1,4:R3-17:R3|PEPTIDE1,PEPTIDE1,8:R3-13:R3$$$V2.0; N-terminus and C-terminus assumed), in the experiment with E. coli DC2, the “time to dissipation of the cytoplasmic membrane potential” value is not above 5 min. For the same compound, the MIC in experiment [1] came out at 0.25 µg/mL; in experiment [2], 0.25 µg/mL; in the experiment on Candida albicans, 1 µg/mL; in the experiment with Escherichia coli UB1005, 0.125 µg/mL. For the same compound, the “Mean Time to Death” value in the experiment on P. aeruginosa M2 (200 μg peptide intraperitoneally 30 min after infection) is given as 52 h. In addition, the “Survival (%), P. aeruginosa infection” value in the experiment with P. aeruginosa M2 (200 μg peptide intraperitoneally, groups of 5 mice, assessed 24 to 72 hours) came out at 20%.
